Laboratory results as given in patent US5698444A (Eli Lilly and Company, priority 1993, dated 1997).
Like-named read-outs stand apart in the source and are kept apart here.

Target: T1, human 5-HT2B receptor (Homo sapiens, UniProt P41595)
T1 construct: expressed in transfected cells
Test: competition assay: inhibition of binding of [3H]5-hydroxytryptamine to the cloned human 5-HT2B receptor (cell membranes)

T1 sequence (P41595 whole entry): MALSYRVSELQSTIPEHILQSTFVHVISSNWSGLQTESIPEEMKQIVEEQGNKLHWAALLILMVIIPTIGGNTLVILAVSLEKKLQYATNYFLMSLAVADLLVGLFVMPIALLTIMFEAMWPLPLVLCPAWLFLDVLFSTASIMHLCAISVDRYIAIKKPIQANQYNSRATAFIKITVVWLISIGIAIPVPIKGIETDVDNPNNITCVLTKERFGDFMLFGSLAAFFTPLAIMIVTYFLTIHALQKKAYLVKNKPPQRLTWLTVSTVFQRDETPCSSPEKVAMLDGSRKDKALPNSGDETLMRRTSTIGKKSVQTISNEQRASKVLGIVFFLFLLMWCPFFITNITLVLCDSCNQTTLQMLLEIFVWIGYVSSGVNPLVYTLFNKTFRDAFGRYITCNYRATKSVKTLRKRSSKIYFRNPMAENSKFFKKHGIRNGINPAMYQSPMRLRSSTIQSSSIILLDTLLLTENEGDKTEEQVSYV

Row | SMILES | IC50 | IC50 (read-out: IC50 (concentration which displaces or inhibits the binding of 50% of the labeled 5-hydroxytryptamine))
1 | CC(N)Cc1c[nH]c2ccc(O)cc12 (stereo not drawn) [α-methyl-5-hydroxytryptamine, 3-(2-aminopropyl)-1H-indol-5-ol] | 11.8 nM | 
2 | c1ccc2c(N3CCNCC3)cccc2c1 [1-(1-naphthyl)piperazine, 1-(1-Naphthyl)piperazine] | 2.41 nM | 
3 | O=C(CCCN1CCC2(CC1)C(=O)NCN2c1ccccc1)c1ccc(F)cc1 [spiperone, 8-[4-(4-fluorophenyl)4-oxobutyl]-1-phenyl-1,3,8-triazaspiro[4,5]decan-4-one] |  | 691 nM
